In publication PMC4151520 (Journal of medicinal chemistry, 2011):
Values belong to the molecule of their own block, whether it stands above or below them.

Tests used:
[1] = molecular target: hLRH-1 LBD alone (no lipid added) (Homo sapiens, UniProt O00482); test: Native gel; type: binding; conditions: doses up to 100 µM
Solubility = type: physicochemical
SW-13 cell line = conditions: cited from earlier work
SF-1 = conditions: read-out: IC50 inverse agonist of SF-1; cited from earlier work
H295R cell line = conditions: cited from earlier work
mouse SF-1 = mouse SF-1 (Mus musculus, UniProt P33242); test: RT-qPCR of endogenous target genes in HEK293 cells stably expressing SF-1; type: cell-based; conditions: 10 µM, 24 h, relative to DMSO
mouse SF-1, sequence (P33242 whole entry): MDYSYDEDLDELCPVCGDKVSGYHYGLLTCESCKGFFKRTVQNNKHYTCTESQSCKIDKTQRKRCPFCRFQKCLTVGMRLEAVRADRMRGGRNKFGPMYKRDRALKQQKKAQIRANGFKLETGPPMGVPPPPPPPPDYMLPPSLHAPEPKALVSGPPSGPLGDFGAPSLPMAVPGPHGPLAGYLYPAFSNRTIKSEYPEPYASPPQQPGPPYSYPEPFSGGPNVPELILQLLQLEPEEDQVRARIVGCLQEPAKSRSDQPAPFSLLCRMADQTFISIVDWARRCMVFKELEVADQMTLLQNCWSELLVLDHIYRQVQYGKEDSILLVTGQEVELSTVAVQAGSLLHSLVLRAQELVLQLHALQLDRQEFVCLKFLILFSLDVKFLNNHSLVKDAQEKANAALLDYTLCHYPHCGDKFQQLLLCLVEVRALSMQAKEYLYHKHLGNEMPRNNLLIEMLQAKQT

LRH-1 = conditions: cited from earlier work
hLRH-1 = hLRH-1 (Homo sapiens, UniProt O00482); test: RT-qPCR of endogenous target genes in HEK293 cells stably expressing hLRH-1; type: cell-based; conditions: 10 µM, 24 h
hLRH-1, sequence (O00482 whole entry): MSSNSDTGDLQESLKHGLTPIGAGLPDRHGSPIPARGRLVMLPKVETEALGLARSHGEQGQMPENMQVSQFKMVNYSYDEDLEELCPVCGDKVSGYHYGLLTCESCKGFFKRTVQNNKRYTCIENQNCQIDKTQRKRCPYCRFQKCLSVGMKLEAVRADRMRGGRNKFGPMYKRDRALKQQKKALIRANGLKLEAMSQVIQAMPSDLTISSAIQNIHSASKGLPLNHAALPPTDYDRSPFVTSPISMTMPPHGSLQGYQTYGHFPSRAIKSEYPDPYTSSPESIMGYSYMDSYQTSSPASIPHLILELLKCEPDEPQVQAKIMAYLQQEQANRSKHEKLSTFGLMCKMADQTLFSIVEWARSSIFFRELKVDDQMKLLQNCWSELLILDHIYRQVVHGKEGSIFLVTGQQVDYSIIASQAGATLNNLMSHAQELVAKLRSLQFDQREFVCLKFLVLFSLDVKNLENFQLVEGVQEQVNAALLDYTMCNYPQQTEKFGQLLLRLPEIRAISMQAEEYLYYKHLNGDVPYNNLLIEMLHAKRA

[2] = room temperature, 2 weeks
[3] = molecular target: human LRH-1 ligand binding domain, labeled with biotin (human, UniProt O00482 300-541, biotin (site not stated)); test: FRET or BRET
human LRH-1 ligand binding domain, labeled with biotin, sequence (O00482 300-541): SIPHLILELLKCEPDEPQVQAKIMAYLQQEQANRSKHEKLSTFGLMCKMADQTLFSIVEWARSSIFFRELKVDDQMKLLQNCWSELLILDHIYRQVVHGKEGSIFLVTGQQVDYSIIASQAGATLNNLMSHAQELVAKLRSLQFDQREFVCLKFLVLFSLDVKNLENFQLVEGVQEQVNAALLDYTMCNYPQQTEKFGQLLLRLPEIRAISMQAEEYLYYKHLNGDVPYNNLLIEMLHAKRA

hLRH-1 LBD alone (no lipid added), sequence (O00482 300-539 limits assumed): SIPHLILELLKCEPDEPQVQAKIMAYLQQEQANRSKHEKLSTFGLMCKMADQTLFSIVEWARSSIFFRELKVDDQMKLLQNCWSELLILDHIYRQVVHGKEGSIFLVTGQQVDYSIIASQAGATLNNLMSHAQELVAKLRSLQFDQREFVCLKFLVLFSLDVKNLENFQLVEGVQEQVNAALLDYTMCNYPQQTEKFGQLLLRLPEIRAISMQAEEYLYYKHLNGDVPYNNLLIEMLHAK

Molecule: CCOC(=O)C(C)Oc1cccc2c(=O)n(CC(=O)Nc3ccc(OC)cc3)ccc12 (centres unmarked) [Compound 9]
- effect on SW-13 (SF-1 negative) (SW-13 cell line; 10 µM): little effect
- IC50 (SF-1): 200 nM
- doxycycline (DOX) induced proliferation of H295R (H295R cell line; 10 µM): modestly suppressed

Molecule: C=C(c1ccccc1)[C@@]12CC[C@@H](O)[C@@H]1CC(CCCCCC)=C2c1ccccc1 (racemic) [Compound 24-exo, rac-(1R,5R,6R)-3-Hexyl-6-hydroxy-2-phenyl-1-(phenylvinyl)-bicyclo[3.3.0]oct-2-ene]
- solubility, in words (Solubility): reasonable solubility in polar solvents
- SF-1-mediated transcription of endogenous SHP, StAR, G0S2 and MeOX1 target genes (mouse SF-1): significantly activate

Molecule: C=C(c1ccccc1)[C@@]12CCC[C@@H]1CC(CCCCCC)=C2CCCO (racemic) [Compound 18s, rac-(1R,5R)-3-Hexyl-1-(phenylvinyl)-2-(propan-3-ol)-bicyclo[3.-3.0]oct-2-ene]
- shift in hLRH-1 LBD native PAGE migration [1]: can consistently shift hLRH-1 LBD migration in this native gel assay, albeit with reduced potency as compared to 24-exo

Molecule: CCCCCCCOc1ccc(O)cc1 [Compound 8, p-heptyloxyphenol]
- proliferation of SW-13 (SF-1 negative) (SW-13 cell line): had the same effect
- activity against LRH-1 (LRH-1): no activity
- proliferation of H295R (H295R cell line): inhibit proliferation

B1: biotin-labeled peptide derived from TIF-2 amino acids 737-757 (peptide)
peptide: QEPVSPKKKENALLRYLLDKDDTKD
HELM: PEPTIDE1{[O=C1N[C@H]2[C@H](CS[C@H]2CCCCC(=O)[*:2])N1].Q.E.P.V.S.P.K.K.K.E.N.A.L.L.R.Y.L.L.D.K.D.D.T.K.D.[am]}$$$$V2.0
SMILES: CC(C)C[C@H](NC(=O)[C@H](C)NC(=O)[C@H](CC(N)=O)NC(=O)[C@H](CCC(=O)O)NC(=O)[C@H](CCCCN)NC(=O)[C@H](CCCCN)NC(=O)[C@H](CCCCN)NC(=O)[C@@H]1CCCN1C(=O)[C@H](CO)NC(=O)[C@@H](NC(=O)[C@@H]1CCCN1C(=O)[C@H](CCC(=O)O)NC(=O)[C@H](CCC(N)=O)NC(=O)CCCC[C@@H]1SC[C@@H]2NC(=O)N[C@@H]21)C(C)C)C(=O)N[C@@H](CC(C)C)C(=O)N[C@@H](CCCNC(=N)N)C(=O)N[C@@H](Cc1ccc(O)cc1)C(=O)N[C@@H](CC(C)C)C(=O)N[C@@H](CC(C)C)C(=O)N[C@@H](CC(=O)O)C(=O)N[C@@H](CCCCN)C(=O)N[C@@H](CC(=O)O)C(=O)N[C@@H](CC(=O)O)C(=O)N[C@H](C(=O)N[C@@H](CCCCN)C(=O)N[C@@H](CC(=O)O)C(N)=O)[C@@H](C)O
- binding result [3]: binds

The next lines start with results.

- solubility, in words (Solubility): very poor solubility in aqueous media
Molecule: C=C(CCCC)[C@@]12CCC[C@@H]1CC(CCCCCC)=C2c1ccccc1 (racemic) [Compound 18j, rac-(1R,5R)-1-(Hex-1-en-2-yl)-3-hexyl-2-phenyl-bicyclo[3.3.0]oct-2-ene]
- shift in hLRH-1 LBD native PAGE migration [1]: does not appear competent to shift hLRH-1 LBD migration

- LRH-1 transcription of the SHP and MeOx1 genes (hLRH-1): failed to activate
- LRH-1 transcription of the StAR and G0S2 genes (hLRH-1): activated
- solubility, in words (Solubility): improved solubility
- SF-1-mediated transcription of endogenous SHP, StAR, G0S2 and MeOX1 target genes (mouse SF-1): significantly activate
Molecule: C=C(c1ccccc1)[C@@]12CN(C)C[C@@H]1CC(CCCCCC)=C2c1ccccc1 (racemic) [Compound 20a]

- stability in CDCl3 in the presence of daylight [2]: stable
Molecule: C=C(c1ccccc1)[C@@]12CCC[C@@H]1CC(CCCCCC)=C2c1ccccc1 (racemic) [Compound 18a, rac-(1R,5R)-3-Hexyl-2-phenyl-1-(1-phenylvinyl)-bicyclo[3.3.0]oc-t-2-ene]
